The text below walks through data of patent publication US20040048860A1, “Use of selective noradrenaline reuptake inhibitors for the treatment of tension-type headache” (priority 2000, published 2004).

Series [1] deals with chronic tension-type headache. Kind of series: Prophylactic treatment with reboxetine in patients with chronic tension-type headache (headache diary). It counts as in vivo, human. An excerpt: Prophylactic treatment with reboxetine has been given to 10 patients with chronic tension-type headache treated at the outpatient headache clinic at the Department of Neurology, Glostrup Hospital, University of Copenhagen, Denmark. There were 5 women and 5 men with a mean age of 44 years. All patients had been suffering from chronic tension-type headache for several years, and had been treatment resistant to other headache prophylactics. Before treatment, the patents underwent a general and a neurological examination and completed a diagnostic headache diary during a four-week run-in period.
The patients filled in a headache diary before and during treatment recording headache characteristics, accompanying symptoms and intake of analgesics.
In total, 10 patents have been treated with reboxetne (as the methanesulphonate salt). […] The patents were instructed to take the tablet two to three hours before bedtime. Four patients stopped treatment within the first 4 weeks due to side effects. […] Efficacy was estimated to be very good in 66% of the patients that fulfilled the treatment series.

For series [2], the system named is chronic tension-type headache. The conditions noted are these: prophylactic; cited from earlier work.
Setting [3] is: patients with chronic tension-type headache, 4 mg to 8 mg once daily, headache diary.

The structures appear in SMILES notation. Entries after “also recorded” stand apart in the source; their conditions may differ. Read-outs that look alike come from different tables or passages of the source.

Turning to `CCOc1ccccc1OC(c1ccccc1)C1CNCCO1` (stereo not drawn) [reboxetne, 2-[α-(2-ethoxy)-phenoxy-benzyl]morpholine], the “Efficacy estimated to be very good, share of the patients that fulfilled the treatment series” value in series [1] (6 patients that completed the treatment series) is listed as 66%. Also, in series [1] (10 patients treated, 4 mg to 8 mg once daily), the side effects result was “Sleeping problems and dizziness were the most common side effect; also recorded: No serious side effects were reported”. Further, in series [1] (setting [3]), the “reduction in consumption of analgesics” value is given as 55%, the reduction in intensity is listed as 78% and the “reduction of AUC (intensity×duration)” value was 47%. This molecule also showed a Headache frequency reduced in series [1] (patients with chronic tension-type headache, initial dose 4 mg once daily, final dose 8 mg once daily, headache diary before vs during treatment) of 10%. Moreover, the “patients that stopped treatment due to side effects” value in series [1] (within the first 4 weeks, 10 patients treated) is on record as “Four”.
With `CN(C)CCC=C1c2ccccc2CCc2ccccc21` [Amitriptyline], in series [2], the reduces headache is reported as 30%; the side effects entry is “many side effects, such as sedation and dryness of mouth”.
